Literature values, collected in patent publication US6504031B1, “Naphthamidine urokinase inhibitors” (priority 1998, dated 2003).

Key:
[1] = tested on: angiogenesis; conditions: J. Cell Biol. 1991, 115[3 Pt 2], 402a
[2] = tested on: tumor metastasis; conditions: Anticancer Res. 1988, 8, 1373-1376

In the case of N=C(N)NC(=O)c1nc(Cl)c(N)nc1N [Amiloride], the “inhibition of angiogenesis in vitro” value [1] is listed as “inhibit” and the “inhibition of tumor metastasis in vivo” value [2] is listed as “inhibit tumor metastasis”.
